The text below walks through data of US20090105343A1, “Cancer Therapy And Medicaments Therefor” (The University of Birmingham, priority 2004, published 2009).

Entries after “also recorded” stand apart in the source; their conditions may differ.

What all share (assay type): cell-based
Experiment [1] deals with RT-4. Description: Proliferation assay (ATP bioluminescence), RT-4 bladder cancer cells. To be noted: Homo sapiens; RT-4 cells, 96 h; read-out: Estimated dose required to inhibit bladder cancer cell proliferation by 50% (ED50). The protocol: (§1) The action of individual agents alone and in combination was examined using a bioluminescent technique to measure changes in cellular ATP (ViaLight HS, LumiTech, Nottingham, U.K.) with previously optimised conditions according to the manufacturer's instructions (Rashid, S. F. et al. Supra). Briefly, cells were plated in 96 well white-walled tissue culture-treated plates (Fisher Scientific Ltd. Loughborough, U.K.) (cancer cell lines at 2×10^3 cells/well; PrEC at 3.5×10^3 cells/well). […] After the incubation period, 100 μl of nucleotide releasing reagent was added to each well and cells were left for 30 minutes at room temperature. Liberated ATP was quantitated by adding 20 μl of ATP monitoring reagent (containing luciferin and luciferase) and measuring luminescence with a microplate luminometer (Berthold Detection Systems, Fisher Scientific Ltd.). ATP levels were recorded in relative luciferase units and growth inhibition was expressed as a percentage of control.

In experiment [2] the test system is EJ-28. Description: Proliferation assay (ATP bioluminescence), EJ-28 bladder cancer cells. The note with it: for Sensitivity of EJ-28 proliferation to ligand treatment: EJ-28 cells, ligand alone. How it is done:
as §1

Experiment [3] has as its system DU-145 cells. As to the kind of experiment: Cell cycle analysis (propidium iodide flow cytometry). The note with it: DU-145, 1 μM, after 24 hr (ctrl 41%). How it is done:
The effect of nuclear receptor ligands in combination with the HDAC inhibitors on the cell cycle was measured by staining DNA with propidium iodide (PI). Briefly, T25 flasks were seeded with 2.5×10^5 sub-confluent, exponentially proliferating cells, exposed to 100 nM 1α,25(OH)2D3 alone or combined with either 300 μM NaB or 15 nM TSA at times 0 (and re-dosed after 48 hours in 72 and 96 hr assays). After a total of 24, 48, 72 and 96 hours, cultures were harvested by trypsinising, counted and 1×10^6 cells were stained with PI buffer (10 μg/ml PI, 1% (w/v) tri-sodium citrate, 0.1% (v/v) Triton X-100, 100 μM sodium chloride (Sigma)). Cell cycle distribution was determined using a Becton-Dickinson Flow Cytometer and CellFIT Cell-Cycle Analysis software.
In general terms: Flow cytometry measures light scatter and fluorescence of single cells or particles in a stream.

Experiment [4] concerns p21^(waf1/cip1). Description: Upregulation of CDKI p21(waf1/cip1). The note with it: 2 μM. The protocol: (§2) Cells were seeded at a density of 2×10^4/cm^2 and allowed to grow for 36 h to ensure that cells were in mid-exponential phase upon treatment. Total RNA was extracted using the GenElute RNA extraction system (Sigma) according to manufacturer's instructions. Primary cultures were serially passaged and grown to 80% confluency in standard serum-free medium. Cells were fed one day prior to isolation of total RNA using the Qiagen RNeasy Midi kit (Qiagen, Palo Alto, Calif., USA).
(§3) For real time reverse transcription-polymerase chain reaction (RT-PCR), cDNA was prepared from 1 μg of total RNA by reverse transcription with Mu-MLV (Promega Southampton, UK) at 42° C. for 60 min in the presence of 100 mM Tris-HCl, pH 9.0, 500 mM KCl and 2 mM MgCl2, 100 μM random hexamers (Pharmacia, Pisacataway, N.J.), 2 mM dNTP and 20 U RNAsin (Promega) in a 20 μl reaction volume.
(§4) Expression of specific mRNAs was quantitated using the ABI PRISM 7700 Sequence Detection System. […]
(§5) Data were expressed as Ct values (the cycle number at which logarithmic PCR plots cross a calculated threshold line) and used to determine δCt values (δCt=Ct of the target gene minus Ct of the housekeeping gene). […]

The test system of experiment [5] is GADD45α. Description: GADD45α gene induction (Q-RT-PCR). The note with it: 0.1 μM, 8 hr. The protocol:
as §2, §3, §4, §5

Experiment [6] deals with prostate cancer cell lines. As to the kind of experiment: Proliferation assay (ATP bioluminescence), prostate cancer cell lines, single agents and combinations. How it is done:
as §1
The interactions of two compounds were assessed by measuring the mean of either the nuclear receptor ligand or the HDAC inhibitor acting alone or in combination. The mean observed combined effect was compared to the individual effects of the agents added together, using the Student's t-test. […] All other analyses were also compared using the Student's t-test.

The subject of experiment [7] is GADD45α. Description: GADD45α induction in PC-3 cells after SMRT knock down. The note with it: SMRT knocked down by RNAi. An excerpt:
SIRNA fragments (22mers) were generated in vitro using a Dicer generation system according to the manufacturer's protocol (Gene Therapy Systems, San Diego, Calif.). Briefly, a 650 bp region from the human SMRT gene sequence corresponding to 112 to 762 was amplified using the following primers containing T7 promoter sequences;
FS: 5′-[…]-3′ and RV: 5′-[…]-3′. This was subsequently cloned into the pGEM T easy vector (Promega), using the multiple cloning sites to allow for sequencing, large scale harvest. Digestion with ECoR1 released a pure concentrated template for in vitro […] with primers containing T7 recognition sequences to generate double stranded mRNA. This was subsequently cleaved with recombinant human Dicer enzyme to generate a pool of 22mers which cover the region targeted in the 5′prime region of the SMRT gene. Five hundred ng of purified double stranded RNA 22mers were transfected into each well (2×10^5 cells/well in 24-well plates) for 12 hrs. Cells were then left for a further 72 hr to allow gene silencing and subsequently treated with 1α,25(OH)2D3 (100 nM) for 6 hr and total RNA was harvested and Q-RT-PCR for SMRT and target genes was undertaken as above.

For the compound `C[C@H](CCC(=O)O)[C@H]1CC[C@H]2[C@@H]3[C@H](O)C[C@@H]4C[C@H](O)CC[C@]4(C)[C@H]3CC[C@]12C` [CDA, chenodeoxycholic acid], the EC50 in experiment [1] was 11 µM. For the same compound, the “ligand action in EJ-28 cells on co-treatment with SAHA” value in experiment [2] (EJ-28, co-treatment with SAHA) is given as “restored the actions”. Further, the “Sensitivity of EJ-28 proliferation to ligand treatment” value in experiment [2] is recorded as “insensitive”.
`O=C(CCCCCCC(=O)Nc1ccccc1)NO` [SAHA, Suberoylanilide hydroxamic acid]: the “cells in G1” value in experiment [3] was found to be 64%. The “upregulation of the CDKI p21(waf1/cip1)” value in experiment [4] was “potent and immediate upregulation”. In addition, in experiment [5], the “GADD45α induction, individual agent alone” value is given as “not significant”.
As to `C=C1/C(=C\C=C2/CCC[C@]3(C)[C@@H]([C@H](C)CCCC(C)(C)O)CC[C@@H]23)C[C@@H](O)C[C@@H]1O` [Vit D, 1α,25-dihydroxyvitamin D3], in experiment [2], the “Sensitivity of EJ-28 proliferation to ligand treatment” value is reported as “insensitive”. Moreover, the “interaction of the ligand with SAHA on proliferation” value in experiment [6] (co-treatment with SAHA, listed as 1α,25(OH)2D3) was “did not appear to extend; also recorded: does not”. In addition, the “augmentation of the ligand's action by TSA” value in experiment [6] (co-treatment with TSA) is given as “augments”. Also, the “GADD45α induction by ligand alone after SMRT knock down” value in experiment [7] was “very strongly enhanced”.
